Reference: PMC12349723, “Computationally accelerated identification of P-glycoprotein inhibitors” (PLOS One, 2025)
Values joined by “and” are separate entries in the source; they are usually repeats but may differ in a detail not shown here. Equal entries are not always repeated. Where two headings read alike, the source gives them in different places.

Key:
Format in all cases: cell-based, human
[1] = system: A2780-ADR cells; assay: MTT viability assay, reversal of MDR in P-gp overexpressing A2780-ADR cells; conditions: for Reversal of MDR in A2780-ADR cells: 15 µM compound with or without 500 nM PTX, 48 h, MTT; for Mean % Survival / % Survival (individual sample) / viability at 15 µM: A2780-ADR cells; for viability at 15 µM: Homo sapiens, A2780 ADR
In short: (§1)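 A2780 and doxorubicin-selected (100 nM) P-gp-overexpressing A2780-ADR cells, 3,000/well in RPMI + 10% FBS, were exposed to compounds, with or without chemotherapeutic, for 48 h at 37 °C. MTT read at 570 nm after 4 h; survival expressed as percent of vehicle, or vehicle-plus-chemotherapeutic, control.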

[2] = system: A2780 cells; assay: MTT viability assay, parental A2780 cells, with or without PTX; conditions: for Increase of PTX toxicity against parental A2780 cells: 15 µM compound with or without 500 nM PTX, 48 h, MTT; for Mean % Survival / % Survival (individual sample): A2780 cells; for % Survival (individual sample): single samples; for viability at 15 µM: Homo sapiens, A2780, A2780 cells, read-out: Mean % Survival
In short: as §1

[3] = system: DU145-TXR cells; assay: MTT viability assay, reversal of MDR (re-sensitization to paclitaxel) in P-gp overexpressing DU145-TXR cells; conditions: for % Survival, mean / % Survival / viability at 15 µM: DU145-TXR; for Re-sensitization of DU145-TXR cells to PTX (reversal of MDR): 15 µM compound with or without 500 nM PTX, 48 h, MTT, re-sensitization = 30% or greater decrease in cell viability; for viability at 15 µM: Homo sapiens
In short: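 MTT viability testing was done on P-gp overexpressing, multidrug resistant DU145-TXR human prostate cancer cells. They were kept in 10 nM paclitaxel and seeded at 3,000 cells per well in complete RPMI. Cells were exposed to compound, with or without paclitaxel, for 48 hours. MTT was then added for 4 hours, formazan was dissolved in DMSO, and absorbance was read at 570 nm. Survival was expressed relative to control-treated cells.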

[4] = 15 µM compound + 500 nM PTX, mean of 12 samples
[5] = 15 µM compound + 500 nM PTX, single samples (trials 1-3, samples 1-4)
[6] = 15 µM compound alone, single samples (trials 1-3, samples 1-4)
[7] = 15 µM compound alone, mean of 12 samples, read-out: Mean % Survival
[8] = 15 µM compound + 500 nM PTX, mean of 8 or 12 samples
[9] = 15 µM compound alone, mean of 8 or 12 samples
[10] = 15 µM compound + 500 nM PTX (Paclitaxel, Taxol), mean of 8 samples
[11] = 15 µM compound + 500 nM PTX (Paclitaxel, Taxol), trial 1, sample 1
[12] = 15 µM compound + 500 nM PTX (Paclitaxel, Taxol), trial 1, sample 2
[13] = 15 µM compound + 500 nM PTX (Paclitaxel, Taxol), trial 1, sample 3
[14] = 15 µM compound + 500 nM PTX (Paclitaxel, Taxol), trial 1, sample 4
[15] = 15 µM compound + 500 nM PTX (Paclitaxel, Taxol), trial 2, sample 1
[16] = 15 µM compound + 500 nM PTX (Paclitaxel, Taxol), trial 2, sample 2
[17] = 15 µM compound + 500 nM PTX (Paclitaxel, Taxol), trial 2, sample 3
[18] = 15 µM compound + 500 nM PTX (Paclitaxel, Taxol), trial 2, sample 4
[19] = 15 µM Compound Alone, mean of 8 samples, read-out: % Survival, mean
[20] = 15 µM Compound Alone, trial 1, sample 1, read-out: % Survival
[21] = 15 µM Compound Alone, trial 1, sample 2, read-out: % Survival
[22] = 15 µM Compound Alone, trial 1, sample 3, read-out: % Survival
[23] = 15 µM Compound Alone, trial 1, sample 4, read-out: % Survival
[24] = 15 µM Compound Alone, trial 2, sample 1, read-out: % Survival
[25] = 15 µM Compound Alone, trial 2, sample 2, read-out: % Survival
[26] = 15 µM Compound Alone, trial 2, sample 3, read-out: % Survival
[27] = 15 µM Compound Alone, trial 2, sample 4, read-out: % Survival
[28] = 1 µM compound + 500 nM PTX, mean of 12 samples

SMILES	Mean % Survival [1, 4] [%]	% Survival (individual sample) [1, 5]	% Survival (individual sample) [1, 6]	viability at 15 µM [1, 7] [%]	Mean % Survival [2, 8] [%]	% Survival (individual sample) ([2]; 15 µM compound + 500 nM PTX)	viability at 15 µM [2, 9] [%]	% Survival, mean [3, 10] [%]	% Survival [3, 11] [%]	% Survival [3, 12] [%]	% Survival [3, 13] [%]	% Survival [3, 14] [%]	% Survival [3, 15] [%]	% Survival [3, 16] [%]	% Survival [3, 17] [%]	% Survival [3, 18] [%]	Re-sensitization of DU145-TXR cells to PTX (reversal of MDR) [3]	viability at 15 µM [3, 19] [%]	viability at 15 µM [3, 20] [%]	viability at 15 µM [3, 21] [%]	other results
O=S(=O)(CCSc1nnc(-c2ccccc2)c2ccccc12)c1ccccc1 [Compound 96, O=S(=O)(CCSc1nnc(-c2ccccc2)c2ccccc12)c1ccccc1]	68.8	58%	97%	105	13.9	19% and 20%	76.5	55.3	56	66	66	63	47	50	48	46	re-sensitized DU145-TXR cells to PTX	89.2	101	100	Reversal of MDR in A2780-ADR cells [1]: reversed MDR in A2780-ADR cells; Increase of PTX toxicity against parental A2780 cells [2]: did not greatly increase the toxicity of PTX against the parental A2780 cells; viability at 15 µM [3, 22]: 98%; viability at 15 µM [3, 23]: 93%; viability at 15 µM [3, 24]: 85%; viability at 15 µM [3, 25]: 85%; viability at 15 µM [3, 26]: 80%; viability at 15 µM [3, 27]: 71%
COc1ccc2c3c([nH]c2c1)[C@H](CC(C)C)N1C(=O)[C@H](CCC(=O)OC(C)(C)C)NC(=O)[C@@H]1C3 [Ko143, reference compound]	–	–	–	–	–	–	–	72.4	75	82	91	77	65	67	58	64	–	–	–	–	Mean % Survival [1, 28]: 77.3%; % Survival (individual sample) ([1]; 1 µM compound + 500 nM PTX, single samples (trials 1-3, samples 1-4)): 70% and 74% and 82% and 83% and 73% and 76% and 85% and 71% and 75% and 84%; Mean % Survival ([1]; 1 µM compound alone, mean of 12 samples): 102.8%; % Survival (individual sample) ([1]; 1 µM compound alone, single samples (trials 1-3, samples 1-4)): 103% and 101% and 106% and 119% and 127% and 112% and 96% and 91% and 87% and 92% and 99%; Mean % Survival [2, 28]: 12.8%; % Survival (individual sample) ([2]; 1 µM compound + 500 nM PTX): 16% and 15% and 9% and 49% and 7% and 8% and 10%; % Survival (individual sample) ([2]; 1 µM compound alone): 88% and 85% and 84% and 87% and 89% and 40% and 99% and 90% and 97% and 92%; Mean % Survival ([2]; mean of 12 samples): 85.3%; % Survival, mean ([3]; 15 µM Compound Alone, mean of 8 samples): 89.2%; % Survival ([3]; 15 µM Compound Alone, trial 1, sample 1): 101%; % Survival ([3]; 15 µM Compound Alone, trial 1, sample 2): 113%; % Survival ([3]; 15 µM Compound Alone, trial 1, sample 3): 88%; % Survival ([3]; 15 µM Compound Alone, trial 1, sample 4): 91%; % Survival ([3]; 15 µM Compound Alone, trial 2, sample 1): 92%; % Survival ([3]; 15 µM Compound Alone, trial 2, sample 2): 74%; % Survival ([3]; 15 µM Compound Alone, trial 2, sample 3): 75%; % Survival ([3]; 15 µM Compound Alone, trial 2, sample 4): 80%
NS(=O)(=O)c1cccc(NC(=O)CSc2nnnn2C2CC2)c1 [Compound 89, NS(=O)(=O)c1cccc(NC(=O)CSc2nnnn2C2CC2)c1]	74.6	54%	90% and 86%	89.9	10.3	8% and 12%	87.9	97.9	108	120	99	113	85	83	88	87	did not reverse MDR in DU145-TXR cells	105	115	120	viability at 15 µM ([1]; 15 µM compound alone, single samples (trials 1-3, samples 1-4), read-out: % Survival (individual sample)): 91%; % Survival (individual sample) ([2]; 15 µM compound alone): 96%; viability at 15 µM [3, 22]: 122%; viability at 15 µM [3, 23]: 116%; viability at 15 µM [3, 24]: 103%; viability at 15 µM [3, 25]: 92%; viability at 15 µM [3, 26]: 95%; viability at 15 µM [3, 27]: 79%
O=C(NCc1cccc(F)c1)c1nnn2c1Sc1c(C(=O)NCc3cccc(F)c3)nnn1CC2 [Compound 122, Fc1cccc(CNC(=O)c2nnn3CCn4nnc(C(=O)NCc5cccc(F)c5)c4Sc23)c1]	45.8	50% and 51% and 45%	104% and 83%	89.7	13.6	12% and 14%	76.5	60.4	61	55	61	62	65	63	54	61	re-sensitized DU145-TXR cells to PTX	106	102	105	Reversal of MDR in A2780-ADR cells [1]: reversed MDR in A2780-ADR cells; Increase of PTX toxicity against parental A2780 cells [2]: did not greatly increase the toxicity of PTX against the parental A2780 cells; viability at 15 µM [3, 22]: 85%; viability at 15 µM [3, 23]: 102%; viability at 15 µM [3, 24]: 123%; viability at 15 µM [3, 25]: 107%; viability at 15 µM [3, 26]: 106%; viability at 15 µM [3, 27]: 114%
